# Source: PubChem BioAssay AID2401 (Southern Research Specialized Biocontainment Screening …, 2010)
# Where “and” joins values, the source holds several entries; their conditions need not be identical. Identical values can stand only once.
# Tested on: S. Typhimurium GFP reporter counter-screen, fluorescence, 4 h
# Experiment: S. Typhimurium nonspecific reporter signal inhibition – Salmonella Typhimurium, GFP fluorescence, counter-screen for PhoP regulon inhibitor project, dose response (AID 2401);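 also: S. typhimurium with Mg-insensitive nmpC-GFP reporter grown at 10 µM Mg2+; drop in reporter fluorescence reflects general culture growth inhibition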
row,Structure (SMILES),IC50
1,Cc1onc(-c2ccccc2)c1C(=O)NC(=S)NNC(=O)c1ccc(O)cc1O,119 µM
2,CCCCCCCCCCOC(=O)Cn1c(COc2ccccc2OC)[n+](C)c2ccccc21,21.4 µM
3,CCCCCCCNC(=O)C1(CC2CC(c3ccc(Cl)cc3)=NO2)CCNCC1 (centres undefined),42.5 µM
4,Cc1nc2c(=O)n(C)c(=O)n(C)c2nc1Cl,106 µM
5,C[C@H]1O[C@@H](n2cc(F)c(=O)[nH]c2=O)[C@H](O)[C@@H]1O,38.6 µM
6,CSc1ccc2c(c1)C(N1CCN(C)CC1)Cc1ccccc1S2 (centres undefined),87.2 µM
7,C/C(=N\Nc1nc2ccccc2[nH]1)c1ccccn1,22.5 µM
8,CC(=O)N1CCN(c2cc3c(cc2F)c(=O)c(C(=O)O)cn3C2CC2)CC1,36.5 µM
9,CCOc1ccc(NC(=O)c2ccc(NC(=O)c3cn4c5c(c(N6CCN(C)CC6)c(F)cc5c3=O)OCC4C)cc2)cc1 (centres undefined),6.51 µM
10,Cc1ccc(C(=O)Sc2cccccc2=O)cc1,9.74 µM
11,O=Nc1ccc(O)c2ncccc12,61.3 µM
12,CCCCCOc1ccc(Br)cc1CSC(=N)N,61.1 µM
13,CCN(CC)c1ccc(/C=N/Nc2nc3ccccc3[nH]2)c(O)c1,33.7 µM
14,C=CS(=O)(=O)c1ccc(Oc2ccc(S(=O)(=O)C=C)cc2)cc1,111 µM
15,O=C1C=C(O)c2c(O)cc(O)c(O)c2C1=O,76.8 µM
16,O=C(CSc1ccccn1)N/N=C/c1cc([N+](=O)[O-])ccc1O,34.9 µM
17,CC1CCc2cc(F)cc3c(=O)c(C(=O)O)cn1c23 (centres undefined),20.9 µM
18,Cc1ccc(Cn2c(=N)n(CC(=O)c3ccc([N+](=O)[O-])cc3)c3ccccc32)cc1,103 µM
19,Cc1cc(C(C)(C)CC(C)(C)C)ccc1OCCOCC[N+](C)(C)Cc1ccccc1,26.9 µM
20,CN(C)CCCN(C(=O)CCc1ccccc1)c1nc2ccc(Cl)cc2s1,39 µM
21,COc1c(N2CCN(C(=S)Nc3ccc(F)cc3)C(C)C2)c(F)cc2c(=O)c(C(=O)O)cn(C3CC3)c12 (centres undefined),15.7 µM
22,NC1=NC[C@H](c2ccccc2)N1CCCCC1CCCCC1,52.2 µM
23,Oc1cccc(Nc2nc(NCC3CCCO3)c3ccccc3n2)c1 (centres undefined),99.8 µM
24,CCc1ccc(S(=O)(=O)/N=C2/C=C(Sc3ncn[nH]3)C(=O)c3ccccc32)cc1,76.9 µM
25,Cc1ccc(Nc2c3c(nc4ccccc24)CCC3)cc1,122 µM
26,O=C(N/N=C/c1cc([N+](=O)[O-])ccc1O)C1CC1,34 µM
27,COc1ccc(OCc2n(CC(=O)OC3CC(C)CCC3C(C)C)c3ccccc3[n+]2C)cc1 (centres undefined),39.6 µM

row,Structure (SMILES),IC50
1,Cc1cc(/C=N/n2c(COc3ccccc3)nc3ccccc3c2=O)c(O)c([N+](=O)[O-])c1,56.5 µM
2,Oc1cccc(/C=N/Nc2ccc(Cl)nn2)c1O,18.3 µM
3,Oc1cc(Cl)ccc1Oc1ccc(Cl)cc1Cl,0.49 µM
4,COc1cccc(/C=N\NC(=O)Cn2nnc3ccccc32)c1O,57.6 µM
5,O=C(c1ccccc1)c1c2c(cc3sc4ccccc4[n+]13)-c1cccc3cccc-2c13,82.2 µM
6,NC(N)=NN=C1CCCCCCCCCCC1,77.3 µM
7,CC(C(=O)NC1C=CS(=O)(=O)C1)N1C(=O)/C(=C/c2ccc(Cl)cc2)SC1=S (centres undefined),15.4 µM
8,CN(C)CCCNc1cc(C(C)(C)C)nc2c(-c3ccccc3)cnn12,53.6 µM
9,CCN1CCN(C(c2ccc(C(F)(F)F)cc2)c2ccc3cccnc3c2O)CC1 (centres undefined),39.4 µM
10,Clc1ccc(-c2c[n+](Cc3ccc(Cl)cc3Cl)c3n2CCCCC3)cc1,98.8 µM
11,OC(CNCCc1ccccc1)COc1ccc(OCC(O)CNCCc2ccccc2)cc1 (centres undefined),63.7 µM
12,CCCCCCCCCCOC(=O)Cn1c(COc2ccc(OC)cc2)[n+](C)c2ccccc21,21.2 µM and 22.3 µM
13,CCCCCCCCCCOC(=O)C[N+](C)(C)C/C=C(/C)Cl,44.9 µM
14,Clc1ccc(CN2CCC(c3nc4ccc(Cl)cc4[nH]3)CC2)cc1,22.4 µM
15,CCCCCCCNC(=O)C1(CC2CC(c3cccc(Br)c3)=NO2)CCNCC1 (centres undefined),37.7 µM
16,CCCCCCCCCCOC(=O)Cn1c(COc2cccc(C)c2)[n+](C)c2ccccc21,19.7 µM
17,CC[C@H]1OC(=O)C[C@@H](O)[C@H](C)[C@@H](O[C@@H]2O[C@H](C)C[C@H](N(C)C)[C@H]2O)[C@@H](CC=O)C[C@@H](C)C(=O)C=C[C@]2(C)O[C@H]2[C@@H]1C,14.2 µM
18,COc1ccc(C(=O)N/N=C/c2sc3ccccc3c2O)cc1,41.5 µM
19,C[C@H]1c2cccc(O)c2C(O)=C2C(=O)[C@]3(O)C(O)=C(C(N)=O)C(=O)[C@@H](N(C)C)[C@@H]3[C@@H](O)[C@@H]21,2.87 µM
20,O=C(N/N=C/c1ccc([N+](=O)[O-])o1)c1ccc(O)cc1,36.8 µM
21,COc1cc(C(=O)Oc2c(CN3CCOCC3)cc(Cl)c3cccnc23)cc(OC)c1OC,126 µM
22,C#CCOCCOCCOCCNc1nc(N2CCN(C(=O)CCCCCCCCCCNC(=O)[C@H](CO)n3cc(CCCCCN)nn3)CC2)nc(N2CCN(C(=O)CCCCCCCCCCNC(=O)[C@H](CCCN=C(N)N)n3cc(C[C@@H](C)CC)nn3)CC2)n1,86.2 µM
23,CCN1/C(=C/C=C/C=C/c2sc3ccccc3[n+]2CC)Sc2ccccc21,17.8 µM
24,CN1/C(=C\C=C\C2=[N+](C)c3ccc4ccccc4c3C2(C)C)C(C)(C)c2ccccc21,9.42 µM
25,CC(=O)NC(c1cccc([N+](=O)[O-])c1)c1ccc2cccnc2c1O (centres undefined),47.1 µM
26,Cc1cccc(Nc2cc(C)c3c(O)cccc3n2)c1C,38.8 µM
27,CC(C(=O)NC1CCS(=O)(=O)C1)N1C(=O)/C(=C/c2ccc(Cl)cc2)SC1=S (centres undefined),11.6 µM
